# According to patent publication US5629298A, “Adenosine as a positive inotrop in the compromised heart” (University of Massachusetts Medical Center, priority 1995, dated 1997):
# Where two headings read alike, the source gives them in different places.
# Tests used:
# [1] = tested on: myocardial membrane adenylyl cyclase; assay: Adenylyl cyclase activity of crude ventricular myocardial membranes; assay type: biochemical, rat; conditions: homogenate of the rat heart ventricular myocardium; only at 1 MM CGS-21680
# Protocol: Crude ventricular myocardial membranes were prepared according to the following procedure. Isolated rat hearts were perfused with 5 ml of ice cold saline (0.9% NaCl) to wash out the blood, minced into 2-3 mm^3 cubes, and placed in 10 ml of homogenization buffer (HB) containing 10 mM HEPES (pH 7.4), 1 mM ethylenediamine-tetraacetic acid (EDTA), 1 mM DTT and 10 μg/ml soybean trypsin inhibitor. The suspension was homogenized with a PT-10 PolytronTM generator at a speed of 6 for two 15-second periods separated by 15 seconds. The homogenized material was also treated with 2 strokes of a glass/teflon motor driven Potter-Elvehjen homogenizer operated at 1/2 full speed. Upon addition of 4.7 ml of HB containing 1.25M sucrose the homogenate was mixed and centrifugated at 1,000 x g for 15 minutes. The supernatant was filtered through 4 layers of cheesecloth and 14.5 ml HB was added. […] Membranes were assayed immediately for adenylyl cyclase activity. […] The formed [α-^32 […] separated from the [α-^32 P]dATP by sequential chromatography using columns of cation exchange resin AG 50W-X4 (200-400 mesh) and neutral alumnia AG 7 (100-200 mesh) after the methods of Salomon (Adv. Cyclic Nucleotide Res. 10:35 (1979). All results were corrected for column recovery of [^3 […] ranged between 60 and 90%. The activity of the adenylyl cyclase is expressed as pmol [α-^32 […] formed/min/mg protein.
# rat ventricular myocytes = assay: Contractile function of individual ventricular myocytes (line scan camera edge detection, paced at 0.5 Hz); assay type: cell-based; conditions: for +dL/dtmax, maximal rate of shortening / -dL/dtmax, maximal rate of relaxation / DS, duration of shortening / LC, maximum length change (shortening) with contraction / TPS, time-to-peak shortening / TR, time to 75% relaxation: mean ± SE
# [2] = Rattus norvegicus, Ventricular myocyte, read-out: increase in TPS
# [3] = Rattus norvegicus, Ventricular myocyte, read-out: increase in TR
# [4] = Table 4, CGS-21680 10^-4 M, cumulative dose-response, every 10 min, N = 6
# [5] = Table 4, CGS-21680 10^-5 M, cumulative dose-response, every 10 min, N = 6
# [6] = Table 4, CGS-21680 10^-6 M, cumulative dose-response, every 10 min, N = 9
# [7] = Table 4, CGS-21680 10^-7 M, cumulative dose-response, every 10 min, N = 9
# [8] = Table 4, CGS-21680 10^-8 M, cumulative dose-response, every 10 min, N = 8
# [9] = Table 5, CGS-21680 and/or CGS-15943 at 10^-5 M, 10 min, N = 6
compound,measurement,setting,value
"CCNC(=O)[C@H]1O[C@@H](n2cnc3c(N)nc(NCCc4ccc(CCC(=O)O)cc4)nc32)[C@H](O)[C@@H]1O [CGS-21680, 2-p-(2-carboxy-ethyl)phenethyl-amino-5'-N-ethylcarboxamido-adenosine]",adenylyl cyclase activity,[1],increased
same,effect on -dL/dtmax,"rat ventricular myocytes; CGS-21680, Table 4 concentrations",did not affect
same,contractility variables compared to 1 μM CGS-21680 in the absence of DPCPX,rat ventricular myocytes; CGS-21680 at 1 μM in the presence of 0.2 μM DPCPX,no further increases
same,EC50,"rat ventricular myocytes; Rattus norvegicus, Ventricular myocyte, read-out: EC50 for +dL/dtmax",13.2 ± 5.6 nM
same,EC50,"rat ventricular myocytes; Rattus norvegicus, Ventricular myocyte, read-out: EC50 for DS",26 ± 5.4 nM
same,EC50,"rat ventricular myocytes; Rattus norvegicus, Ventricular myocyte, read-out: EC50 for LC",6.1 ± 2 nM
same,EC50,"rat ventricular myocytes; Rattus norvegicus, Ventricular myocyte, read-out: EC50 for TPS",48.2 ± 6.7 nM
same,EC50,"rat ventricular myocytes; Rattus norvegicus, Ventricular myocyte, read-out: EC50 for TR",28.9 ± 8.7 nM
same,activation at 0.1 µM,"rat ventricular myocytes; Rattus norvegicus, Ventricular myocyte, read-out: increase in +dL/dtmax",27%
same,activation at 0.1 µM,"rat ventricular myocytes; Rattus norvegicus, Ventricular myocyte, read-out: increase in DS",32%
same,activation at 0.1 µM,"rat ventricular myocytes; Rattus norvegicus, Ventricular myocyte, read-out: increase in LC",28%
same,activation at 0.01 µM,rat ventricular myocytes; [2],11%
same,activation at 0.1 µM,rat ventricular myocytes; [2],30%
same,activation at 0.01 µM,rat ventricular myocytes; [3],12%
same,activation at 0.1 µM,rat ventricular myocytes; [3],22%
same,"+dL/dtmax, maximal rate of shortening",rat ventricular myocytes; [4],158 ± 14 μm/msec
same,"-dL/dtmax, maximal rate of relaxation",rat ventricular myocytes; [4],108 ± 16 μm/msec
same,"DS, duration of shortening",rat ventricular myocytes; [4],404 ± 17 ms
same,"LC, maximum length change (shortening) with contraction",rat ventricular myocytes; [4],22 ± 2 μm
same,"TPS, time-to-peak shortening",rat ventricular myocytes; [4],156 ± 3 ms
same,"TR, time to 75% relaxation",rat ventricular myocytes; [4],322 ± 12 ms
same,"+dL/dtmax, maximal rate of shortening",rat ventricular myocytes; [5],187 ± 13 μm/msec
same,"-dL/dtmax, maximal rate of relaxation",rat ventricular myocytes; [5],127 ± 13 μm/msec
same,"DS, duration of shortening",rat ventricular myocytes; [5],460 ± 18 ms
same,"LC, maximum length change (shortening) with contraction",rat ventricular myocytes; [5],26 ± 3 μm
same,"TPS, time-to-peak shortening",rat ventricular myocytes; [5],192 ± 4 ms
same,"TR, time to 75% relaxation",rat ventricular myocytes; [5],397 ± 14 ms
same,"+dL/dtmax, maximal rate of shortening",rat ventricular myocytes; [6],188 ± 11 μm/msec
same,"-dL/dtmax, maximal rate of relaxation",rat ventricular myocytes; [6],121 ± 15 μm/msec
same,"DS, duration of shortening",rat ventricular myocytes; [6],458 ± 12 ms
same,"LC, maximum length change (shortening) with contraction",rat ventricular myocytes; [6],24 ± 2 μm
same,"TPS, time-to-peak shortening",rat ventricular myocytes; [6],183 ± 5 ms
same,"TR, time to 75% relaxation",rat ventricular myocytes; [6],390 ± 13 ms
same,"+dL/dtmax, maximal rate of shortening",rat ventricular myocytes; [7],183 ± 14 μm/msec
same,"-dL/dtmax, maximal rate of relaxation",rat ventricular myocytes; [7],126 ± 12 μm/msec
same,"DS, duration of shortening",rat ventricular myocytes; [7],431 ± 14 ms
same,"LC, maximum length change (shortening) with contraction",rat ventricular myocytes; [7],23 ± 2 μm
same,"TPS, time-to-peak shortening",rat ventricular myocytes; [7],169 ± 3 ms
same,"TR, time to 75% relaxation",rat ventricular myocytes; [7],361 ± 12 ms
same,"+dL/dtmax, maximal rate of shortening",rat ventricular myocytes; [8],162 ± 13 μm/msec
same,"-dL/dtmax, maximal rate of relaxation",rat ventricular myocytes; [8],125 ± 11 μm/msec
same,"DS, duration of shortening",rat ventricular myocytes; [8],363 ± 15 ms
same,"LC, maximum length change (shortening) with contraction",rat ventricular myocytes; [8],22 ± 2 μm
same,"TPS, time-to-peak shortening",rat ventricular myocytes; [8],144 ± 4 ms
same,"TR, time to 75% relaxation",rat ventricular myocytes; [8],334 ± 10 ms
same,"+dL/dtmax, maximal rate of shortening",rat ventricular myocytes; [9],192 ± 11 μm/msec
same,"-dL/dtmax, maximal rate of relaxation",rat ventricular myocytes; [9],122 ± 12 μm/msec
same,"DS, duration of shortening",rat ventricular myocytes; [9],486 ± 15 ms
same,"LC, maximum length change (shortening) with contraction",rat ventricular myocytes; [9],25 ± 2 μm
same,"TPS, time-to-peak shortening",rat ventricular myocytes; [9],190 ± 4 ms
same,"TR, time to 75% relaxation",rat ventricular myocytes; [9],392 ± 13 ms
same,EC50,"rat ventricular myocytes; read-out: EC50 for the contractile variables (length change, duration of shortening, time to peak shortening, time to 75% relaxation, +dL/dtmax), range over the five variables",6 to 48 nM
